Here are results for 2 molecules from article PMC9520760 (ACS Omega, 2022).

In experiment [1] the test system is PC-3 cells. Kind of experiment: MTT cell proliferation assay, PC-3. It counts as cell-based. As to conditions: Homo sapiens, PC-3, 48 h, read-out: IC50 (Mean ± SEM) PC-3.
Experiment [2] relates to MCF-7 cells. Kind of experiment: MTT cell proliferation assay, MCF-7. As to conditions: for IC50: Homo sapiens, MCF7, 48 h, read-out: IC50 (Mean ± SEM) MCF-7; for antiproliferative activity against MCF-7: MTT assay. It counts as cell-based, human.
Experiment [3] has as its system HEK-293 cells. Kind of experiment: MTT toxicity in normal cell line HEK-293. It counts as cell-based. As to conditions: Homo sapiens, HEK293, 48 h, read-out: IC50 (Mean ± SEM) HEK-293.
Experiment [4] relates to MDA-MB-231 cells. Kind of experiment: MTT cell proliferation assay, MDA-MB-231. The class given is cell-based, human. To be noted: for IC50: Homo sapiens, MDA-MB-231, 48 h, read-out: IC50 (Mean ± SEM) MDA-MB-231; for antiproliferative activity against MDA-MB-231: MTT assay.
Experiment [5] concerns HeLa cells. Kind of experiment: MTT cell proliferation assay, HeLa. The class given is cell-based, human. To be noted: for IC50: Homo sapiens, HeLa, 48 h, read-out: IC50 (Mean ± SEM) HeLa; for antiproliferative activity against HeLa: MTT assay.
For experiment [6], the system named is Ishikawa cell line. Kind of experiment: MTT cell proliferation assay, Ishikawa. The class given is cell-based, human. As to conditions: for IC50: Homo sapiens, Ishikawa, 48 h, read-out: IC50 (Mean ± SEM) Ishikawa.
Experiment [7] deals with various cancer cell lines. Kind of experiment: MTT assay, panel of cancer cell lines. It counts as cell-based. To be noted: Homo sapiens, read-out: IC50 against various cancer cell lines.

On to `Cc1nn(-c2ccccc2)c(O)c1C(c1ccccc1)c1c(C)nn(-c2ccccc2)c1O` [3a], for which the IC50 in experiment [1] is more than 40 µM; in experiment [2], 35.1 ± 1.38 µM; in experiment [3], more than 40 µM; in experiment [4] it was 30.8 ± 1.49 µM; in experiment [5] it was 30.7 ± 1.38 µM; in experiment [6], 30.2 ± 2.12 µM. Also, in experiment [2], the “antiproliferative activity against MCF-7” value was “weak inhibition”. The “antiproliferative activity against MDA-MB-231” value in experiment [4] is given as “weak inhibition”. For the same molecule, the “antiproliferative activity against HeLa” value in experiment [5] is recorded as “weak inhibition”.

For `Cc1nn(-c2ccccc2)c(O)c1C(c1ccc(Cl)cc1)c1c(C)nn(-c2ccccc2)c1O` [3c], the IC50 in experiment [1] was more than 40 µM; in experiment [7], 5.45 to 18.3 µM; in experiment [2] it was 16.3 ± 0.62 µM; in experiment [3], more than 40 µM; in experiment [4], 22.4 ± 1.34 µM; in experiment [5], 32.4 ± 1.62 µM. In addition, the IC50 in experiment [6] came to 36.9 ± 1.38 µM. The “antiproliferative activity against MCF-7” value in experiment [2] is “good inhibition”. Moreover, the “antiproliferative activity against MDA-MB-231” value in experiment [4] is reported as “mild inhibition”. In addition, the “antiproliferative activity against HeLa” value in experiment [5] is on record as “weak antiproliferative activity”. The “antiproliferative activity against Ishikawa” value in experiment [6] (MTT assay) is given as “weak antiproliferative activity”.
